The values that follow come from paper PMC10582335 (Frontiers in Pharmacology, 2023).

As usually defined, the AUC(0-inf) is total exposure, with the tail of the curve extrapolated. The AUC(0-t) is exposure summed from dosing to a finite time, without extrapolation to infinity. The Cmax is the highest concentration seen after dosing. As a reminder, the Tmax is the time from dosing to the highest level.

The nature of data set [1]: Pharmacokinetics of apixaban in rats, alone and after multiple doses of almonertinib. In kind it is in vivo, Sprague-Dawley (SD) rats. Conditions: for increase of AUC of apixaban: multiple doses of almonertinib; for MRT inf / MRT last / AUC(0-inf) / AUC(0-t) / Cmax / Tmax / CL/F / Vd/F / half-life: male, Sprague-Dawley, rat, po; for MRT inf: read-out: MRT0-∞; for MRT last: read-out: MRT0-t; for CL/F: read-out: CLz/F (converted); for Vd/F: read-out: Vz/F; for half-life: read-out: t1/2z (converted). Here is the method: Chromatographic separation was performed using an XSelect HSS T3 column (2.1 mm × 100 mm, 2.5 µm, Waters, Milford, MA, United States) at 40°C by gradient elution. The mobile phase consisted of water (A) and acetonitrile (0.1% formic acid, B). […] The flow rate was 0.35 mL min^−1, and the injection volume was 6 µL. The positive ion mode with multiple reaction detection was used. […] The mass spectrometer conditions, including delustering potential (DP) and collision energy (CE) of the compounds, are shown in Table 1. […] Protein precipitation was used to process the plasma samples. 5 μL of mixed IS working solution, 50 µL of the plasma samples, and 150 µL of acetonitrile were vortex-mixed for 1.0 min. […] The supernatant was transferred to a 96-well plate for sample analysis. […] (Beijing, China). […] The study was approved and supervised by the Animal Ethics Committee of Hebei General Hospital (Shijiazhuang, China) (No. 2023024). Adaptive feeding (sufficient food and water) was performed for 1 week before the experiment. […] All rats were fasted for 12 h before starting the experiments while still given water. Sixty healthy rats were randomly divided into ten groups (n = 6). […] Blood samples were centrifuged at 3,500 g for 10 min, and then the supernatant was gathered and stored in a −80°C refrigerator. After, rat intestine, kidney and liver tissues were harvested for molecular analysis on the ninth or fifth day after treatment with the corresponding drugs for each group. The tissues were placed immediately at −80°C. DAS 2.1.1 Software (Mathematical Pharmacology Professional Committee of China, Shanghai, China) was applied to calculate pharmacokinetic parameters using non-compartmental analysis. SPSS 25.0 statistical software (SPSS Inc., Chicago, IL, United States) was applied to statistically analyze the main pharmacokinetic parameters, including AUC, Cmax, Tmax, t1/2, CLz/F, Vz/F, and MRT.

Details of data set [2]: method as in Frost et al., 2015. Conditions: ref Frost et al., 2015, cited from earlier work.
On the set-up of data set [3]: method as in Kim et al., 2019. To be noted: with verapamil (inhibitor of P-gp and CYP3A4); ref Kim et al., 2019; cited from earlier work.
Setting [4] is: apixaban 0.25 mg/kg with multiple doses of almonertinib (group 8) compared with group 2, rats.
Setting [5] is: apixaban 0.5 mg/kg with multiple doses of almonertinib (group 7) compared with group 2, rats.
[6] abbreviates: plasma, 0.25 mg/kg, rats, oral apixaban 0.25 mg/kg after almonertinib 15 mg/kg for nine days (group 8), mean ± SD, n = 6.
The mark [7] stands for this setting: plasma, 0.5 mg/kg, rats, oral apixaban 0.5 mg/kg after almonertinib 15 mg/kg for nine days (group 7), mean ± SD, n = 6.
[8] abbreviates: plasma, 0.5 mg/kg, rats, oral apixaban 0.5 mg/kg alone (group 2), mean ± SD, n = 6.

SMILES strings stand for the structures. “And” between values parts separate entries of the source, which are not always exact repeats. Identical values can stand only once. Like-named read-outs stand apart in the source and are kept apart here.

As to `COc1ccc(-n2nc(C(N)=O)c3c2C(=O)N(c2ccc(N4CCCCC4=O)cc2)CC3)cc1` [apixaban, Apixaban], the “increase of Cmax of apixaban” value in data set [1] (apixaban 0.25 mg/kg with multiple doses of almonertinib (group 8) compared with apixaban 0.5 mg/kg alone (group 2), rats) is 2.19 fold and 2.2 fold; in data set [1] (apixaban 0.5 mg/kg with multiple doses of almonertinib (group 7) compared with apixaban 0.5 mg/kg alone (group 2), rats), 2.69 fold and ~3.0 fold. In addition, the “decrease of CLz/F of apixaban” value amounted to 5.29 fold in data set [1] (setting [4]) and 3.00 fold in data set [1] (setting [5]). Further, the “increase of AUC0-t of apixaban” value in data set [1] (setting [4]) is 2.06 fold; in data set [1] (setting [5]) it was 2.87 fold. For the same molecule, the “increase of AUC0-∞ of apixaban” value in data set [1] (setting [4]) worked out at 2.02 fold; in data set [1] (setting [5]), 2.82 fold. Besides, the “increase of AUC of apixaban” value in data set [1] (dose of apixaban reduced by half, rats (discussion)) is 2.1 fold; in data set [1] (rats (discussion, AUC not specified further)), around 3.0 fold. The MRT inf in data set [1] (in vivo, 0.25 mg/kg) came out at 2.06 ± 0.36 h; in data set [1] (setting [7]) it was 2.11 ± 0.13 h; in data set [1] (setting [8]) it was 2.42 ± 0.16 h. The MRT last in data set [1] (in vivo, 0.5 mg/kg) worked out at 2.19 ± 0.13 h; in data set [1] (plasma, 0.25 mg/kg), 2.01 ± 0.32 h; in data set [1] (plasma, 0.5 mg/kg) it was 2.08 ± 0.13 h. The AUC(0-inf) in data set [1] (setting [6]) turned out to be 1870 ± 528 ng·h/mL; in data set [1] (setting [7]) it was 2370 ng·h/mL; in data set [1] (setting [8]) it was 621 ± 168 ng·h/mL. The results for the AUC(0-t) in data set [1] (setting [6]), in data set [1] (setting [7]) and in data set [1] (setting [8]) were 1870 ± 529 ng·h/mL, 2360 ng·h/mL and 611 ± 168 ng·h/mL, respectively. Also, the Cmax in data set [1] (setting [6]) turned out to be 645 ± 191 ng/mL; in data set [1] (setting [7]), 747 ± 159 ng/mL; in data set [1] (setting [8]), 202 ± 50.9 ng/mL. Also, the Tmax in data set [1] (setting [6]) turned out to be 0.79 ± 0.25 h; in data set [1] (setting [7]) it was 0.63 ± 0.14 h; in data set [1] (setting [8]), 0.68 ± 0.28 h. Besides, the CL/F in data set [1] (setting [6]) is 2.33 mL/min/kg; in data set [1] (setting [7]) it was 3.67 mL/min/kg; in data set [1] (setting [8]) it was 14.7 mL/min/kg. The Vd/F in data set [1] (setting [6]) came to 0.44 ± 0.11 L/kg; in data set [1] (setting [7]), 0.58 ± 0.2 L/kg; in data set [1] (setting [8]), 3.72 ± 1.63 L/kg. Moreover, the half-life in data set [1] (setting [6]) is 2.17 ± 0.15 h; in data set [1] (setting [7]) it was 1.81 ± 0.23 h; in data set [1] (setting [8]), 2.95 ± 0.96 h. Moreover, the “increase in exposure to apixaban” value in data set [2] (combined with diltiazem) is listed as 1.4 fold; in data set [2] (combined with ketoconazole), 2.0 fold.
Turning to `O=C(NC[C@H]1CN(c2ccc(N3CCOCC3=O)cc2)C(=O)O1)c1ccc(Cl)s1` [rivaroxaban, Rivaroxaban], the “increase of systemic exposure of rivaroxaban” value in data set [3] is reported as 2.8 fold.
